Positions of bridges follow the written chain, without caps; N, C: chain ends. Non-standard residues stand in square brackets, D forms with d. Residues, ends and D or L forms follow the SMILES beside them. *: point of attachment. X1 = CC[C@H](C)CCCCC(=O)*; Dab = NCC[C@H](N)C(=O)O
Experiments:
[1] = Population PK model of colistin in epithelial lining fluid (NONMEM, one-compartment, Weibull absorption); assay type: in vivo, human; conditions: ELF
Excerpt: (§1) The time courses of colistin concentrations in ELF and plasma were best described using one-compartment models with a Weibull absorption process. The following structural PK model described by two differential equations was applied:(1) dA1/dt=−WB×A1 (2) WB=KAMAX×1−e^−RA×time^GAM (3) dA2/dt=WB×A1−CL/V×A2 where A1 and A2 represent the amounts of colistin in ELF and plasma, and WB denotes the Weibull absorption function with parameters KAMMA, RA, and GAM. KAMMA determines the function’s maximum value, often representing the maximum rate of absorption or event occurrence. RA, the shape parameter, controls the rate of change over time, influencing the distribution’s slope and how quickly it increases or decreases. GAM adjusts the time variable’s exponent, controlling the rate of growth or decline over time, thereby affecting the distribution’s asymmetry and indicating the curve’s speed in reaching its peak or declining. CL and V are the total clearance and volume of distribution for colistin, respectively. The estimated CL and V in Table 2 were expressed as CL/fm and V/fm, respectively, where fm represents the fraction of CMS metabolized to colistin, a value that cannot be estimated from our study data. No significant covariates influencing the PK parameters were identified. The estimated PK parameters for the final PK models are presented in Table 2, while individual fit plots for colistin in ELF and plasma can be found in Figure 2 and Figure 3, respectively. Diagnostic goodness-of-fit plots for the final PK model of colistin in ELF and plasma are shown in Supplementary Materials Figures S1 and S2, respectively. […] With the observed 10th, 50th, and 90th percentiles mostly within the 95% confidence intervals of the simulated percentiles, the final PK models effectively explained the observed concentrations and had good predictive performance.
(§2) A population PK analysis of colistin in ELF and plasma was conducted using NONMEM 7.5.0 (ICON Clinical Research LLC, North Wales, PA, USA). The analysis used first-order conditional estimation with interaction (FOCEI) to estimate both observed fixed and unexplained random effect parameters. The FOCEI allows the inter-individual variability (IIV) in the PK parameters to interact with the residual unexplained variability (RUV) in the observed concentrations. The RUV arises from factors such as within-subject variability, assay error, and potential misspecification of the model. ADVAN1 TRANS2 and ADVAN3 TRANS4 from the NONMEM PK model library were used to construct the single- and two-compartment models, respectively. Except for drug inhalation, all PK processes were assumed to follow first-order kinetics. Various absorption models, including zero-order, first-order, Weibull, and transit absorption models, were investigated to describe the absorption processes of colistin.
(§3) The representation of each PK parameter was given by θi = θ × exp(ηi), where θ stands for the typical value of the PK parameter, θi represents an individual PK parameter, and ηi is a random variable associated with IIV. It was assumed that IIV follows a normal distribution with a mean of 0 and a variance of ω^2. For RUV, which was assumed to be normally distributed with a mean of 0 and a variance of σ^2; additive, proportional, and combined additive and proportional error models were investigated.
(§4) Models were assessed and chosen based on NONMEM objective function values (OFVs), the precision of parameter estimates (relative standard errors), the shrinkage of IIV, and diagnostic goodness-of-fit plots. In the log-likelihood ratio test, if the decrease in OFV (ΔOFV) is greater than 3.84 for models with one additional degree of freedom or greater than 5.99 for models with two additional degrees of freedom, it is considered statistically significant at p < 0.05, indicating an improvement in the model. […]

[2] = Population PK model of colistin in plasma (NONMEM, one-compartment, Weibull absorption); assay type: in vivo, human
Excerpt: as §1, §2, §3, §4

A. baumannii = conditions: murine lung infection model; cited from earlier work

CC[C@H](C)CCCCC(=O)N[C@@H](CCN)C(=O)N[C@H](C(=O)N[C@@H](CCN)C(=O)N[C@H]1CCNC(=O)[C@H]([C@@H](C)O)NC(=O)[C@H](CCN)NC(=O)[C@H](CCN)NC(=O)[C@H](CC(C)C)NC(=O)[C@@H](CC(C)C)NC(=O)[C@H](CCN)NC1=O)[C@@H](C)O [colistin] (X1-[Dab]T[Dab][Dab][Dab][dL]L[Dab][Dab]T; lactam 4-C)
CL/fm, bootstrap median (95% CI) ([1]; 2000 bootstrap samples): 0.529 (0.352–0.77) mL/min | KAMAX, bootstrap median (95% CI) ([1]; 2000 bootstrap samples): 0.533 (0.335–0.973) | V/fm, bootstrap median (95% CI) ([1]; 2000 bootstrap samples): 24.3 (11.0–46.7) mL | KAMAX (maximum rate of absorption), estimate ([1]; Weibull absorption): 0.531 | CL/fm, estimate ([1]; final PK model): 0.541 mL/min | V/fm, estimate ([1]; final PK model): 23.0 mL | CL/fm, bootstrap median (95% CI) ([2]; 2000 bootstrap samples): 26.1 (6.66–67) mL/min | KAMAX, bootstrap median (95% CI) ([2]; 2000 bootstrap samples): 1.20 (0.912–1.59) | V/fm, bootstrap median (95% CI) ([2]; 2000 bootstrap samples): 67.2 (46.6–93) L | KAMAX (maximum rate of absorption), estimate ([2]; Weibull absorption): 1.20 | CL/fm, estimate ([2]; final PK model): 26.3 mL/min | V/fm, estimate ([2]; final PK model): 67.4 L | fAUC/MIC target values for a 2 log10 kill (A. baumannii): 22.5–95.0 mg/L·h
